Measured values as given in patent publication US7022699B2, “Cyclohexenyl phenyl diazepines vasopressin and oxytocin receptor modulators” (Wyeth, priority 2001, dated 2006).

How the values were obtained:
[1] = molecular target: T1, human vasopressin V2 receptor subtype (Homo sapiens, UniProt P30518); assay: Vasopressin binding in CHO cell membranes expressing human vasopressin V2 subtype receptors ([3H]arginine vasopressin); details: for inhibition at 0.1 µM / V2 % inhibition @ 100 nM: 100 nM, values without parentheses; for IC50: values in parentheses
T1 construct: host or cells: CHO cells, stably transfected (pZeoSV vector); membranes
Description: Vasopressin Binding in Chinese Hamster Ovary Cell Membranes Expressing Human Vasopressin V2 Subtype Receptors
Chinese Hamster Ovary (CHO) cells stably transfected with the human V2 subtype receptors were obtained from M. Thibonnier, Case Western Reserve University School of Medicine, Cleveland, Ohio.
A. Passaging and Amplification of Cells:
CHO cells transfected with the human vasopressin V2 subtype receptors obtained from M. Thibonnier (pZeoSV vector) are allowed to grow to confluency (approx. >90%) in T-150 flasks under sterile conditions, in a cell culture medium of F-12 Nutrient Mixture (HAM) with L-glutamine (Gibco Cat. #11765-054) containing 15 mM HEPES (Gibco Cat. #15630-080), 1% antibiotic/antimycotic (add 5 mL 100×, Gibco Cat. #15240-062 per 500 mL F-12), 250 μg/mL Zeocin (add 1.25 mL of 100 mg/mL Invitrogen R-250-01 per 500 mL F-12) and 10% Fetal Bovine Serum (Qualified, heat inactivated, Gibco Cat. #16140-063). The medium is removed by aspiration and the cells washed with 10 mL of Hank's Balanced Salt solution (Gibco Cat. #14175-095). The salt solution is removed by aspiration and the cells trypsinized with 5 mL of trypsin-EDTA (0.05% trypsin, 0.53 mM EDTA-4Na, Gibco Cat. #25300-070) for 1 min. The trypsin is removed by aspiration and the cells dislodged by tapping. Cell Culture medium (e.g. 30 mL for 1:30 split) is immediately added and mixed well to inactivate trypsin. 1 mL of detached cells is added to new culture flasks containing fresh Cell Culture medium (e.g. into 25 mL per T-150 flask), and mixed gently. The cells are incubated at 37° C. in 5% CO2. The medium is changed at 3 to 4 day interval (or as appropriate). The cells grow to confluency (approx. >75%–95%) within 7–8 days. All steps are done under sterile conditions. B. Membrane Preparation: The cells are washed twice gently with Hank's Balanced Salt solution (e.g. use 10 mL per T-150 flask). The excess solution is removed and the cells bathed for 15–30 min. in an enzyme-free Cell Dissociation Buffer (e.g. use 8 mL Hank's Based, Gibco Cat. # 13150-016 per T-150 flask) until cells are loosened. The contents are transferred to centrifuge tubes (50 mL size) kept in ice bath. All subsequent steps are done at 4° C. The tubes are centrifuged at 300×g for 15 min (1380 rpm on SORVAL, Model RT6000D, using rotor for 50 mL tubes). The supernatant is discarded and the cells suspended in homogeneizing buffer (10 mM Tris-HCl containing 0.25 M sucrose and 1 mM EDTA, pH 7.4) ensuring that the volume of the buffer is about ten times the volume of the cell pellet. The cells are pooled into a centrifuge tube (50 mL) and homogenized with Polytron at setting 6 for 10 sec. The homogenate is transferred into a Potter-Elvjehm homogeneizer and homogenized with 3 strokes. The homogenate is centrifuged at 1500×g for 60 min at 4° C. (3100 rpm using SORVAL, model RT6000D, using rotor for 50 mL tubes). The pellet is discarded. The supernatant is centrifuged at 100,000×g for 60 min. at 4° C. (Beckman L8-80M ultracentrifuge; spin at 37,500 rpm with rotor type 70 Ti for 50 mL tubes; 38,000 rpm with type 80Ti for 15 mL tubes; or 35,800 rpm with rotor type 45Ti). The supernantant is discarded and the pellet suspended in 3 to 4 mL of Tris buffer (50 mM TRIS-HCl, pH 7.4). The protein content is estimated by the Bradford or Lowry method. The volume of the membrane suspension is adjusted with the membrane buffer (50 mM Tris-HCl containing 0.1% BSA and 0.1 mM PMSF) to give 3.0 mg/mL (or as appropriate) of protein. The membranes are aliquoted and stored at −70° C. C. Radioligand Binding Assay:
In wells of a 96-well format microtiter plate, is added 90, 110 or 130 μL (to make up a final volume of 200 μL) of assay buffer containing 50 mM of Tris-HCl (pH 7.4), […], 1 mg % aprotinin, 1 mg % leupeptin, 2 mg % 1,10-phenanthroline, 10 mg % trypsin inhibitor, and 0.1 mM PMSF. The inhibitors are added on the day of the experiment. […]

T1 sequence (P30518 whole entry): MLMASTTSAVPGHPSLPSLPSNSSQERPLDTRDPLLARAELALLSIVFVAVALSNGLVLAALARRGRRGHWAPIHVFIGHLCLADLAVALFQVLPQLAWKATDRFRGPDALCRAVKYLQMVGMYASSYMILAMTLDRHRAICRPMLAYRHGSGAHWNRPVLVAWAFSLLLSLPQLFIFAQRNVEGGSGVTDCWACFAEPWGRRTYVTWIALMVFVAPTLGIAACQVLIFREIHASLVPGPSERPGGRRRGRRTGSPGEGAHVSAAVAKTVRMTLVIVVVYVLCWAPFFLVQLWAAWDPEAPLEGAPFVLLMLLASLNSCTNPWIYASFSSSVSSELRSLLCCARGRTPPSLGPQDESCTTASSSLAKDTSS

inhibition at 0.1 µM [1] [%]	melting point [°C]	SMILES	further results
2	–	CC1=C(c2ccc(C(=O)N3Cc4cccn4Cc4ccccc43)cc2C)CCCC1O (racemic) [Example 5, (10,11-Dihydro-5H-pyrrolo[2,1-c][1,4]benzodiazepin-10-yl)-[4-(3-hydroxy-2-methyl-cyclohex-1-en-1-yl)-3-methyl-phenyl]-methanone]	–
40	–	CC1=C(c2ccc(C(=O)N3Cc4cccn4Cc4ccccc43)cc2C)CCC[C@H]1O (single isomer, unassigned) [Example 41]	–
45	–	CC1=C(c2ccc(C(=O)N3Cc4cccn4Cc4ccccc43)cc2C)CCC[C@@H]1O (single isomer, unassigned) [Example 43]	–
–	92 to 98	COc1cc(C2=CCCCC2)c(Cl)cc1C(=O)N1Cc2cccn2Cc2ccccc21 [Example 1, 10-(5-Chloro-4-cyclohex-1-en-1-yl-2-methoxybenzoyl)-10,11-dihydro-5H-pyrrolo[2,1-c][1,4]benzodiazepine]	IC50 [1]: 176 nM
42	182 to 183	Cc1cc(C(=O)N2Cc3cccn3Cc3ccccc32)ccc1C1=CCCCC1 [Example 2, (10,11-Dihydro-5H-pyrrolo[2,1-c][1,4]benzodiazepin-10-yl)-(4-cyclohex-1-en-1-yl-3-methyl-phenyl)-methanone]	–
–	108	Cc1cc(C(=O)N2Cc3cccn3Cc3ccccc32)ccc1C1=CCCc2ccccc21 [Example 3, (10,11-Dihydro-5H-pyrrolo[2,1-c][1,4]benzodiazepin-10-yl)-[4-(3,4-dihydro-naphthalen-1-yl)-3-methyl-phenyl]-methanone]	IC50 [1]: 66 nM
74	–	CC1=C(c2ccc(C(=O)N3Cc4cccn4Cc4ccccc43)cc2C)CCCC1=O [Example 4, 3-[2-Methyl-4-(5H-pyrrolo[2,1-c][1,4]benzodiazepin-10(11H)-yl-carbonyl)phenyl]-2-methyl-cyclohex-2-en-1-one]	–
49	–	CC1=C(c2ccc(C(=O)N3Cc4cccn4Cc4ccccc43)cc2C)CCC[C@H]1O [Example 6, (10,11-Dihydro-5H-pyrrolo[2,1-c][1,4]benzodiazepin-10-yl)-[4-((3R)-3-hydroxy-2-methyl-cyclohex-1-en-1-yl)-3-methyl-phenyl]-methanone]	–
–	119 to 120	CC1=C(c2ccc(C(=O)N3Cc4cccn4Cc4ccccc43)cc2)CCCC1 [Example 7, (10,11-Dihydro-5H-pyrrolo[2,1-c][1,4]benzodiazepin-10-yl)-[4-(2-methyl-cyclohex-1-en-1-yl)-phenyl]-methanone]	IC50 [1]: 162 nM
77	209 to 210	COc1cc(C2=CCCc3ccccc32)c(Cl)cc1C(=O)N1Cc2cccn2Cc2ccccc21 [Example 8, 10-[5-Chloro-4-(3,4-dihydro-naphthalen-1-yl)-2-methoxybenzoyl]-10,11-dihydro-5H-pyrrolo[2,1-c][1,4]benzodiazepine]	–
69	–	COc1cc(C2=C(C)C(=O)CCC2)c(Cl)cc1C(=O)N1Cc2cccn2Cc2ccccc21 [Example 9, 3-[2-Chloro-5-methoxy-4-(5H-pyrrolo[2,1-c][1,4]benzodiazepin-10(11H)-yl-carbonyl)phenyl]-2-methyl-cyclohex-2-en-1-one]	–
65	–	O=C(c1ccc(C2=CCCCC2)cc1Cl)N1Cc2cccn2Cc2ccccc21 [Example 10, (10,11-dihydro-5H-pyrrolo[2,1-c][1,4]benzodiazepin-10-yl)-[2-chloro-4-(cyclohex-1-en1-yl)-phenyl]-methanone]	–
90	174 to 176	O=C(c1ccc(C2=CCCc3ccccc32)cc1Cl)N1Cc2cccn2Cc2ccccc21 [Example 11, (10,11-Dihydro-5H-pyrrolo[2,1-c][1,4]benzodiazepin-10-yl)-[2-chloro-4-(3,4-dihydro-naphthalen-1-yl)-phenyl]-methanone]	–
82	–	CC1(C)CCCC=C1c1ccc(C(=O)N2Cc3cccn3Cc3ccccc32)c(Cl)c1 [Example 12, (10,11-Dihydro-5H-pyrrolo[2,1-c][1,4]benzodiazepin-10-yl)-[2-chloro-4-(6,6-dimethyl-cyclohex-1-en-1-yl)-phenyl]-methanone]	–
55	–	CC1=C(c2ccc(C(=O)N3Cc4cccn4Cc4ccccc43)c(Cl)c2)CCCC1=O [Example 13, (10,11-Dihydro-5H-pyrrolo[2,1-c][1,4]benzodiazepin-10-yl)-[2-chloro-4-(2-methyl-3-oxo-cyclohex-1-en-1-yl)-phenyl]-methanone]	–
38	–	CC1=C(c2ccc(C(=O)N3Cc4cccn4Cc4ccccc43)c(Cl)c2)CCCC1O (centres unmarked) [Example 14, (10,11-Dihydro-5H-pyrrolo[2,1-c][1,4]benzodiazepin-10-yl)-[2-chloro-4-(3-hydroxy-2-methyl-cyclohex-1-en-1-yl)-phenyl]-methanone]	–
–	156	O=C(c1ccc(C2=CCCCC2)cc1)N1Cc2cccn2Cc2ccccc21 [Example 15, (10,11-Dihydro-5H-pyrrolo[2,1-c][1,4]benzodiazepin-10-yl)-(4-cyclohex-1-en-1-yl-phenyl)-methanone]	IC50 [1]: 774 nM
–	108 to 109	CC1CCCC=C1c1ccc(C(=O)N2Cc3cccn3Cc3ccccc32)cc1 (centres unmarked) [Example 16, (10,11-Dihydro-5H-pyrrolo[2,1-c][1,4]benzodiazepin-10-yl)-[4-(6-methyl-cyclohex-1-en-1-yl)-phenyl]-methanone]	IC50 [1]: 295 nM
–	–	CC(C)(C)C1CCCC=C1c1ccc(C(=O)N2Cc3cccn3Cc3ccccc32)cc1 (centres unmarked) [Example 20, (10,11-5H-Dihydro-pyrrolo[2,1-c][1,4]benzodiazepin-10-yl)-[4-(6-tert-butyl-cyclohex-1-en-1-yl)-phenyl]-methanone]	V2 % inhibition @ 100 nM [1]: 10%
–	–	O=C(c1ccc(C2=CCC3CCC2C3)cc1)N1Cc2cccn2Cc2ccccc21 (centres unmarked) [Example 21]	V2 % inhibition @ 100 nM [1]: 5%
39	–	O=C(c1ccc(C2=CC(O)CCC2)cc1)N1Cc2cccn2Cc2ccccc21 (centres unmarked) [Example 25, (10,11-Dihydro-5H-pyrrolo[2,1-c][1,4]benzodiazepin-10-yl)-[4-(3-hydroxy-cyclohex-1-en-1-yl)-phenyl]-methanone]	–
58	–	CC1=C(c2ccc(C(=O)N3Cc4cccn4Cc4ccccc43)cc2)CCCC1O (centres unmarked) [Example 27, (10,11-Dihydro-5H-pyrrolo[2,1-c][1,4]benzodiazepin-10-yl)-[4-(3-hydroxy-2-methyl-cyclohex-1-en-1-yl)-phenyl]-methanone]	–
48	–	Cc1cc(C(=O)N2Cc3cccn3Cc3ccccc32)ccc1C1=CC(O)CCC1 (centres unmarked) [Example 40, (10,11-Dihydro-5H-pyrrolo[2,1-c][1,4]benzodiazepin-10-yl)-[4-(3-hydroxy-cyclohex-1-en-1-yl)-3-methyl-phenyl]-methanone]	–
27	–	CC1=C(c2ccc(C(=O)N3Cc4cccn4Cc4ccccc43)cc2C)CCCC1N (centres unmarked) [Example 45, [4-(3-Amino-2-methyl-cyclohex-1-en-1-yl)-3-methyl-phenyl]-(10,11-dihydro-5H-pyrrolo[2,1-c][1,4]benzodiazepin-10-yl)-methanone]	–
